Laboratory results reported in ChEMBL document CHEMBL6109065, “Synthesis, antibacterial and anticancer activity of azo-based and aminomethylene derivatives of cyclic β-keto sulfones” (Bioorg Med Chem Lett, 2025).
In brackets after ≈: the same amount, converted by molar mass.

Experiments:
[1] = Cytotoxicity against MAEC cells assessed as inhibition of cell growth at 0.5 mM relative to control; assay type: toxicity, cell-based; conditions: mouse
Escherichia coli = experiment: Antibacterial activity against Escherichia coli assessed as reduction in bacterial growth; assay type: functional
Pseudomonas aeruginosa = experiment: Antibacterial activity against Pseudomonas aeruginosa assessed as reduction in bacterial growth; assay type: functional
MDA-MB-231 [2] = experiment: Cytotoxicity against human MDA-MB-231 cells assessed as inhibition of cell growth at 0.5 mM relative to control; assay type: functional
Staphylococcus aureus = experiment: Antibacterial activity against Staphylococcus aureus assessed as reduction in bacterial growth; assay type: functional
MDA-MB-231 [3] = experiment: Cytotoxicity against human MDA-MB-231 cells assessed as inhibition of cell viability; assay type: functional, cell-based
[4] = Cytotoxicity against MAEC cells assessed as cell viability; assay type: toxicity, cell-based; conditions: mouse

| Compound | MIC (Escherichia coli) [µM] | MIC (Pseudomonas aeruginosa) [µM] | MIC (Staphylococcus aureus) [µM] | inhibition at 500 µM [1] [%] | inhibition at 500 µM (MDA-MB-231 [2]) [%] | EC50 (MDA-MB-231 [3]) [µM] | EC50 [4] [µM] |
| --- | --- | --- | --- | --- | --- | --- | --- |
| O=C1/C(=C\NCc2ccccc2)S(=O)(=O)CC12CC2 | 750 (≈ 208 µg/mL) | 750 (≈ 208 µg/mL) | 750 (≈ 208 µg/mL) | 17 | 90 | 270 | – |
| CC1(C)CS(=O)(=O)/C(=C/NCc2ccccc2)C1=O | 750 (≈ 210 µg/mL) | 750 (≈ 210 µg/mL) | 94 (≈ 26.3 µg/mL) | 10 | 88 | 283 | – |
| CC(C)(C)OC(=O)N1CCC2(CC1)CS(=O)(=O)/C(=N/Nc1ccc(S(N)(=O)=O)cc1)C2=O | 750 (≈ 365 µg/mL) | > 750 | 375 (≈ 182 µg/mL) | 11 | 93 | 249 | – |
| O=C1/C(=C\Nc2ccccc2)S(=O)(=O)CC12CC2 | > 750 | 375 (≈ 98.7 µg/mL) | > 750 | 6 | 19 | – | – |
| Cc1ccc(N/N=C2\C(=O)C3(CCCC3)CS2(=O)=O)cc1 | > 750 | 750 (≈ 230 µg/mL) | > 750 | 26 | 66 | – | – |
| CC1(C)CS(=O)(=O)/C(=C/Nc2ccccc2)C1=O | 188 (≈ 49.9 µg/mL) | 375 (≈ 99.5 µg/mL) | 94 (≈ 24.9 µg/mL) | 7 | 7 | – | – |
| CCC1(C)CCS(=O)(=O)/C(=N/Nc2ccc(S(N)(=O)=O)cc2)C1=O (stereo not given) | 750 (≈ 280 µg/mL) | 750 (≈ 280 µg/mL) | 375 (≈ 140 µg/mL) | 100 | 57 | – | 78 |
| Nc1cccc(S(N)(=O)=O)c1 | 750 (≈ 129 µg/mL) | 750 (≈ 129 µg/mL) | 375 (≈ 64.6 µg/mL) | 100 | 30 | – | 93 |
| Nc1ccc(S(N)(=O)=O)cc1 [SULFANILAMIDE] | 375 (≈ 64.6 µg/mL) | 750 (≈ 129 µg/mL) | 750 (≈ 129 µg/mL) | 6 | 57 | – | – |

More lines, main results first:

| MIC (Escherichia coli) [µM] | MIC (Pseudomonas aeruginosa) [µM] | MIC (Staphylococcus aureus) [µM] | Compound | inhibition at 500 µM [1] [%] | inhibition at 500 µM (MDA-MB-231 [2]) [%] | EC50 (MDA-MB-231 [3]) [µM] | EC50 [4] [µM] |
| --- | --- | --- | --- | --- | --- | --- | --- |
| 188 (≈ 69.8 µg/mL) | 750 (≈ 279 µg/mL) | 94 (≈ 34.9 µg/mL) | NS(=O)(=O)c1ccc(N/N=C2\C(=O)C3(CCCC3)CS2(=O)=O)cc1 | 1 | 81 | – | – |
| 188 (≈ 86.2 µg/mL) | > 750 | 188 (≈ 86.2 µg/mL) | CC(C)(C)OC(=O)N1CC2(C1)CS(=O)(=O)/C(=N/Nc1cccc(S(N)(=O)=O)c1)C2=O | 6 | 63 | – | – |
| 188 (≈ 64.9 µg/mL) | 375 (≈ 130 µg/mL) | 188 (≈ 64.9 µg/mL) | CC1(C)CS(=O)(=O)/C(=N/Nc2ccc(S(N)(=O)=O)cc2)C1=O | 3 | 51 | – | – |
| 188 (≈ 64.9 µg/mL) | > 750 | 23 (≈ 7.94 µg/mL) | CC1(C)CS(=O)(=O)/C(=N/Nc2cccc(S(N)(=O)=O)c2)C1=O | 1 | 78 | – | – |
| 188 (≈ 69.8 µg/mL) | > 750 | 188 (≈ 69.8 µg/mL) | NS(=O)(=O)c1cccc(N/N=C2\C(=O)C3(CCCC3)CS2(=O)=O)c1 | 10 | 21 | – | – |
| 188 (≈ 86.2 µg/mL) | 750 (≈ 344 µg/mL) | 23 (≈ 10.5 µg/mL) | CC(C)(C)OC(=O)N1CC2(C1)CS(=O)(=O)/C(=N/Nc1ccc(S(N)(=O)=O)cc1)C2=O | 20 | 21 | – | – |
| 188 (≈ 91.5 µg/mL) | > 750 | 375 (≈ 182 µg/mL) | CC(C)(C)OC(=O)N1CCC2(CC1)CS(=O)(=O)/C(=N/Nc1cccc(S(N)(=O)=O)c1)C2=O | 7 | 37 | – | – |
| 94 (≈ 32.3 µg/mL) | > 750 | 188 (≈ 64.6 µg/mL) | NS(=O)(=O)c1ccc(N/N=C2\C(=O)C3(CC3)CS2(=O)=O)cc1 | 1 | 4 | – | – |
